Where “and” joins values, the source holds several entries; their conditions need not be identical. Identical values can stand only once.
Assays:
HEK293-PSMA cells = test: In vitro cytotoxicity of MMAE conjugates (CellTiter-Glo), HEK293-PSMA; details: read-out: HEK293-PSMA IC50, 7 days, CellTiter-Glo
LNCaP.FGC cells = test: In vitro cytotoxicity of MMAE conjugates (CellTiter-Glo), LNCaP.FGC; details: read-out: LNCaP.FGC IC50, 7 days

PSMA
IC50 (HEK293-PSMA cells): 0.07 nM and 0.06 nM | IC50 (LNCaP.FGC cells): 0.15 nM and 0.1 nM
